Values of other authors in patent publication US20120201867A1, “DRUG DELIVERY FROM EMBOLIC AGENTS” (priority 2004, published 2012).
Where a name gives a salt, the structure may show the parent alone.

Key:
[1] = test system: topoisomerase I purified from human and rodent tumour cell lines; details: SN-38 versus irinotecan
[2] = test system: CC531-lacZ cells; details: Saenger et al.

Row | SMILES | potency relative to irinotecan as an inhibitor of topoisomerase I [1] | complete remission, share of rats [2] [%] | reduction of the mean tumour cell load [2] [%]
1 | CCc1c2c(nc3ccc(O)cc13)-c1cc3c(c(=O)n1C2)COC(=O)[C@]3(O)CC [SN-38] | approximately 1000 times | – | –
2 | CCc1c2c(nc3ccc(OC(=O)N4CCC(N5CCCCC5)CC4)cc13)-c1cc3c(c(=O)n1C2)COC(=O)[C@]3(O)CC [irinotecan, Irinotecan hydrochloride trihydrate] | – | 44 | 66
